Results taken from ChEMBL document CHEMBL4340511, “22-Oxocholestane oximes as potential anti-inflammatory drug candidates” (Eur J Med Chem, 2019).
Activity calls are given as the source filed them. No cut-off for these calls is given here.

Experiments:
Format in all cases: functional, organism-based
Mus musculus [1] = test: Antiinflammatory activity in CD1 mouse assessed as reduction in TPA-induced ear flushing at 125 ug/ear, each surface administered topically for 15 mins prior to TPA challenge and measured after 6 hrs
Mus musculus [2] = test: Antiinflammatory activity against TPA-induced ear edema in CD1 mouse assessed as reduction in ear edema at 125 ug/ear, each surface administered topically for 15 mins prior to TPA challenge and measured after 6 hrs
Mus musculus [3] = test: Antiinflammatory activity in CD1 mouse model of TPA-induced ear edema assessed as decrease in IL-6 expression at 125 ug/ear, each surface administered topically for 15 mins prior to TPA challenge and measured after 6 hrs by qRT-PCR analysis
Mus musculus [4] = test: Antiinflammatory activity against TPA-induced ear edema in CD1 mouse assessed as reduction in weight of ear punches at 125 ug/ear, each surface administered topically for 15 mins prior to TPA challenge and measured after 6 hrs
Mus musculus [5] = test: Antiinflammatory activity in CD1 mouse model of TPA-induced ear edema assessed as decrease in MIF expression at 125 ug/ear, each surface administered topically for 15 mins prior to TPA challenge and measured after 6 hrs by qRT-PCR analysis
Mus musculus [6] = test: Antiinflammatory activity in CD1 mouse model of TPA-induced ear edema assessed as decrease in IFNgamma expression at 125 ug/ear, each surface administered topically for 15 mins prior to TPA challenge and measured after 6 hrs by qRT-PCR analysis
Mus musculus [7] = test: Antiinflammatory activity in CD1 mouse model of TPA-induced ear edema assessed as decrease in TNFalpha expression at 125 ug/ear, each surface administered topically for 15 mins prior to TPA challenge and measured after 6 hrs by qRT-PCR analysis
Mus musculus [8] = test: Antiinflammatory activity in CD1 mouse model of TPA-induced ear edema assessed as decrease in COX-2 expression at 125 ug/ear, each surface administered topically for 15 mins prior to TPA challenge and measured after 6 hrs by qRT-PCR analysis
Mus musculus [9] = test: Antiinflammatory activity in CD1 mouse assessed as reduction in TPA-induced ear flushing at 250 ug/ear, each surface administered topically for 15 mins prior to TPA challenge and measured after 6 hrs
Mus musculus [10] = test: Antiinflammatory activity in CD1 mouse model of TPA-induced ear edema assessed as decrease in MIF expression at 250 ug/ear, each surface administered topically for 15 mins prior to TPA challenge and measured after 6 hrs by qRT-PCR analysis
Mus musculus [11] = test: Antiinflammatory activity in CD1 mouse model of TPA-induced ear edema assessed as decrease in IFNgamma expression at 250 ug/ear, each surface administered topically for 15 mins prior to TPA challenge and measured after 6 hrs by qRT-PCR analysis
Mus musculus [12] = test: Antiinflammatory activity in CD1 mouse model of TPA-induced ear edema assessed as decrease in COX-2 expression at 250 ug/ear, each surface administered topically for 15 mins prior to TPA challenge and measured after 6 hrs by qRT-PCR analysis
Mus musculus [13] = test: Antiinflammatory activity in CD1 mouse model of TPA-induced ear edema assessed as decrease in IL-6 expression at 250 ug/ear, each surface administered topically for 15 mins prior to TPA challenge and measured after 6 hrs by qRT-PCR analysis
Mus musculus [14] = test: Antiinflammatory activity against TPA-induced ear edema in CD1 mouse assessed as reduction in weight of ear punches at 225 ug/ear, each surface administered topically for 15 mins prior to TPA challenge and measured after 6 hrs
Mus musculus [15] = test: Antiinflammatory activity in CD1 mouse model of TPA-induced ear edema assessed as decrease in TNFalpha expression at 250 ug/ear, each surface administered topically for 15 mins prior to TPA challenge and measured after 6 hrs by qRT-PCR analysis
Mus musculus [16] = test: Antiinflammatory activity against TPA-induced ear edema in CD1 mouse assessed as reduction in ear edema at 225 ug/ear, each surface administered topically for 15 mins prior to TPA challenge and measured after 6 hrs

| Structure (SMILES) | Activity (Mus musculus [1]) | Activity (Mus musculus [2]) | Activity (Mus musculus [3]) | Activity (Mus musculus [4]) | Activity (Mus musculus [5]) | Activity (Mus musculus [6]) | Activity (Mus musculus [7]) | Activity (Mus musculus [8]) | Activity (Mus musculus [9]) | Activity (Mus musculus [10]) | Activity (Mus musculus [11]) | Activity (Mus musculus [12]) | Activity (Mus musculus [13]) | Activity (Mus musculus [14]) | Activity (Mus musculus [15]) | Activity (Mus musculus [16]) |
| --- | --- | --- | --- | --- | --- | --- | --- | --- | --- | --- | --- | --- | --- | --- | --- | --- |
| CC(=O)O[C@H]1C[C@H]2[C@@H]3CC=C4C[C@@H](O)CC[C@]4(C)[C@H]3CC[C@]2(C)[C@H]1[C@H](C)C(=O)CC/C(C)=N/O | inactive | Active | Active | Active | Active | inactive | Active | Active | – | – | – | – | – | – | – | – |
| CC(=O)O[C@H]1CC[C@@]2(C)C(=CC[C@H]3[C@@H]4C[C@H](OC(C)=O)[C@H]([C@H](C)C(=O)CC[C@@H](C)/C=N/O)[C@@]4(C)CC[C@@H]32)C1 | – | – | – | inactive | – | – | – | – | – | – | – | – | – | – | – | – |
| CC(=O)O[C@H]1C[C@H]2[C@@H]3CC=C4C[C@@H](O)CC[C@]4(C)[C@H]3CC[C@]2(C)[C@H]1[C@H](C)C(=O)CC[C@@H](C)/C=N/O | – | – | – | inactive | – | – | – | – | – | – | – | – | – | – | – | – |
| CC(=O)O[C@H]1CC[C@@]2(C)C(=CC[C@H]3[C@@H]4C[C@H](OC(C)=O)[C@H]([C@H](C)C(=O)CC[C@H](C)/C=N/O)[C@@]4(C)CC[C@@H]32)C1 | inactive | Active | Active | Active | Active | inactive | Active | Active | – | – | – | – | – | – | – | – |
| C[C@@H]1C[C@H]2[C@@H]3CCC4=CC(=O)C=C[C@]4(C)[C@@]3(F)[C@@H](O)C[C@]2(C)[C@@]1(O)C(=O)CO | – | – | – | – | – | – | – | – | inactive | Active | inactive | Active | Active | Active | Active | Active |
| CC(=O)O[C@H]1C[C@H]2[C@@H]3CC=C4C[C@@H](O)CC[C@]4(C)[C@H]3CC[C@]2(C)[C@H]1[C@H](C)C(=O)CC[C@H](C)/C=N/O | inactive | Active | Active | Active | Active | inactive | Active | Active | – | – | – | – | – | – | – | – |
